Laboratory results taken from ChEMBL document CHEMBL3507680, “University of Dundee, Gates Library screen for HepG2 cell viability”.

Assay: Human HepG2 cell viability assay in 384 well format
Type: toxicity, cell-based
Parameters: dose 125 nL, time 70.5 hour; cytotoxicity at 70.5 h: concentration not given beside the values
Details: HepG2 cells, read-out: Inhibition

Row | Structure (SMILES) | cytotoxicity at 70.5 h [%]
1 | COc1ccc(C(=O)C2CCCN(Cc3ccon3)C2)c(OC)c1 (stereo not drawn) | -10.4
2 | Cc1ccc(-c2ccnc(N[C@H]3COC[C@@H]3N3CCCC3)n2)c(C)n1 | -10.9
3 | CC(C)N(C)S(=O)(=O)c1ccc2c(c1)CCN(C(=O)c1cccnn1)C2 | -13.5
4 | Cc1nccnc1N1C[C@H]2CN(C3CCOCC3)C[C@@]2(C(=O)O)C1 | 2.61
5 | CCCOC1CCCN(c2nc(COC)nc3c2cnn3C)C1 (stereo not drawn) | -19
6 | c1ccc(OCc2noc(CN3CCN(C4CCCC4)CC3)n2)cc1 | 9.68
7 | CC(NS(C)(=O)=O)C(=O)N(C)Cc1cnn(-c2ccc(F)cc2)c1 (stereo not drawn) | 3.12
8 | C/C(=C\c1ccco1)CN(C)C(C)Cc1cc(C)ccn1 (stereo not drawn) | -0.46
9 | CC(C)c1nccn1CCCNC(=O)c1ccc(-c2cnn(C)c2)nc1 | -5.24
10 | CCCC(=O)NCC1CCCN(Cc2cc(C)c(C)o2)C1 (stereo not drawn) | 0.818
11 | Cc1cccc(N2CCC(N3CCC4(CN(C)C(=O)O4)C3)CC2)c1C (stereo not drawn) | -9.4
12 | CS(=O)(=O)N1CCOC(CNC(=O)c2cccc(C#N)c2)C1 (stereo not drawn) | 3.98
13 | CSCCC(O)C(=O)N1CCCN(Cc2cccnc2)CC1 (stereo not drawn) | -9.6
14 | CCn1nc(C)c(C(=O)N2C[C@@H](CN(C)CCOC)[C@@H](CO)C2)c1C | -6.72
15 | CC(C)Cc1nc(CCn2cncn2)n(-c2ccc3c(c2)OCCO3)n1 | -18
16 | CCCN1CCN(c2ccc(-c3nc(C)no3)cn2)CC1 | 13
17 | Cc1nc(CCCNC(=O)[C@H]2CNC[C@@H](C(=O)N3CCCC3)C2)sc1C | -5.47
18 | Cc1cc2nc(C(C)C)cc(NCCc3cccn3C)n2n1 | -8.08
19 | Cc1cc(CN[C@@H](Cc2ccccc2)C(N)=O)c(C)s1 | -14.1
20 | COc1cccc2c1OCC(C(=O)N1CCN(C3CCCC3)C(=O)C1)C2 (stereo not drawn) | -5.59
21 | CN(C)Cc1ccc(C2CCCCN2C(=O)c2cccnn2)cc1 (stereo not drawn) | 2.83
22 | CSCc1nc(CNC(=O)c2cnn(C(C)C)c2)cs1 | -11.2

Row | Structure (SMILES) | cytotoxicity at 70.5 h [%]
23 | CSc1nccc(N2CCC(NCc3ccc4c(c3)OCO4)CC2)n1 | 4.69
24 | Cc1cc2[nH]c(CN3CCOC(c4ccc(Cl)cc4)C3)cc(=O)n2n1 (stereo not drawn) | -2.79
25 | CC(C)(CN1CCCC1)CN1CCC(Cn2cc(CCO)nn2)CC1 | 18.9
26 | CN(C)Cc1ccc(C(=O)N2CCCC(COc3ccc(F)cc3)C2)o1 (stereo not drawn) | -5.29
27 | CN(C)c1nc2c(c(N3CCC(O)CC3)n1)CN(CC(C)(C)C)CC2 | -13.5
28 | CC1(C)CC(N2CCN(C3CCCC3)C(CCO)C2)CC(C)(C)C1 (stereo not drawn) | -8.65
29 | CCn1c(C2CCN(C(=O)c3ccc4sc(C)nc4c3)CC2)n[nH]c1=O | -17.3
30 | CCCn1ccnc1CN1C[C@@H](NC(C)=O)[C@H](c2ccc(OC)cc2)C1 | 15.8
31 | CCOc1ccc(OCc2nccc(-c3cc(C(=O)O)ccn3)n2)cc1 | 16
32 | O=C(Nc1ccccc1OCCc1ccccn1)NC1CCOCC1 | 18.2
33 | NC(=O)c1cc2c(nc1N1C[C@H]3OC(=O)N(C4CCCC4)[C@H]3C1)CCC2 | -10.7
34 | Cc1nn(-c2ccccc2)c(C)c1-c1ccnc(N2CCCOCC2)n1 | -3.17
35 | CS(=O)(=O)N[C@H]1CN(C(=O)CCc2ccc(=O)[nH]n2)C[C@@H]1C1CC1 | -7.22
36 | CN(CCSc1ccccc1)C(=O)c1cn2c(n1)CNCC2 | -12.8
37 | Cc1ccc(-c2ccnc(NCC(O)c3ccc(O)cc3)n2)c(C)n1 (stereo not drawn) | -4.44
38 | Cc1nc(O)cc(CCNc2nc(N(C)C)nc(C)c2C)n1 | 22
39 | CNC(=O)Cc1ccc(-n2ccnc2-c2ccc(C(=O)O)s2)cc1 | -5.64
40 | CNC(=O)C(C)(C)NC(=O)c1cc(COc2ccccc2OC)[nH]n1 | -8.56
41 | O=C1NC[C@@]2(C(=O)O)CN(Cc3cccc(CN4CCOCC4)c3)C[C@@H]12 | 1.62
42 | CN(CC1CCCCO1)c1nncc(-c2cccc(F)c2)n1 (stereo not drawn) | -3.62
43 | CCCOCC(=O)N1CCc2nc(NC)nc(C(=O)N3CCCC3)c2C1 | -4.23
